Read-outs that look alike come from different tables or passages of the source.
Columns and labels:
[1] = tested on: MCF-7 cells; experiment: MTT cytotoxic assay on MCF-7 cells; type: cell-based, Human
Text: “Human breast cancer cells (MCF-7) and normal non-tumorigenic MCF-10A cells were used throughout the work. Cells were obtained from ATCC, Gaithersburg, MD, USA. Standard MTT assay was used to explore the possible cytotoxic effects of the synthesized compounds [41, 42]. Medium composition, cultivation conditions and assay performance were exactly the same as our previous work. […] After MTT addition, the absorbance of the dissolved formazan crystals was read at 570 nm. The IC50 values were obtained with linear regression equations using Origin® 6.1 software (Origin Lab Corporation, Northampton, MA, USA)”.

[2] = Average animal weight in MCF-7 mouse xenograft model; type: in vivo; conditions: nude mice with MCF-7 xenograft, i.p.; for Average Weight of Animals in Grams after Days 0: day 0; for Average Weight of Animals in Grams after Days 2: day 2; for Average Weight of Animals in Grams after Days 4: day 4; for Average Weight of Animals in Grams after Days 6: day 6; for Average Weight of Animals in Grams after Days 8: day 8; for Average Weight of Animals in Grams after Days 10: day 10; for Average Weight of Animals in Grams after Days 12: day 12; for Average Weight of Animals in Grams after Days 14: day 14; for Average Weight of Animals in Grams after Days 16: day 16; for Average Weight of Animals in Grams after Days 18: day 18; for Average Weight of Animals in Grams after Days 20: day 20; for Average Weight of Animals in Grams after Days 22: day 22
Text: “In this work, MCF-7 mouse xenograft model was used. The animal protocol was approved by the Institutional Animal Use Ethics and Care Committee of the University of Alabama at Birmingham (50-01-05-08B). Female athymic pathogen-free nude mice (nu/nu, 4–6 weeks) were purchased from Frederick Cancer Research and Development Center (Frederick, MD, USA). To establish MCF-7 human breast cancer xenografts, each of the female nude mice was first implanted with a 60-day (subcutaneously, s.c.) slow release estrogen pellet (SE-121, 1.7 mg […]/pellet; Innovative Research of America, Sarasota, FL, USA). After 24 h, grown cells were harvested, washed twice with serum-free medium, resuspended, and injected subcutaneously (5 million cells/0.2 mL) into the left inguinal area of the mice. During the experiment, animals were checked periodically and the percentages of tumor growth, as well as animal weights, were recorded. Every 48 h, the size of the tumor was recorded by measuring two perpendicular diameters of the tumor and tumor volume was calculated according to Wang et al. [46]”.
“Treated animals and control groups (7–10 mice/group) received different compounds and vehicles, respectively. The tested compounds were dissolved in PEG400:ethanol:saline (57.1:14.3:28.6, v/v/v), and injected intraperitoneal (i.p.) at doses of […], 3 d/wk for 3 weeks. The higher dose (10 µM/kg/d, 3 d/wk) inhibited MCF-7 xenograft tumor growth”.

Row | Compound | IC50 [1] | IC50 ([1]; Homo sapiens, MCF7) | Average Weight of Animals in Grams after Days 0 [2] | Average Weight of Animals in Grams after Days 2 [2] | Average Weight of Animals in Grams after Days 4 [2] | Average Weight of Animals in Grams after Days 6 [2] | Average Weight of Animals in Grams after Days 8 [2] | Average Weight of Animals in Grams after Days 10 [2] | Average Weight of Animals in Grams after Days 12 [2] | Average Weight of Animals in Grams after Days 14 [2] | Average Weight of Animals in Grams after Days 16 [2] | Average Weight of Animals in Grams after Days 18 [2] | Average Weight of Animals in Grams after Days 20 [2] | Average Weight of Animals in Grams after Days 22 [2]
1 | Milaplatin [reference compound] | 18.43 ± 0.13 µM | – | – | – | – | – | – | – | – | – | – | – | – | –
2 | COc1cccc(C2SCC(=O)N2NC(=O)Cn2cnc3scc(-c4cccs4)c3c2=O)c1OC (stereo not shown) [Compound 8, N-(2-(2,3-Dimethoxyphenyl)-4-oxothiazolidin-3-yl)-2-(4-oxo-5-(thiophen-2-yl)thieno[2,3-d]pyrimidin-3(4H)-yl)acetamide] | – | 1.26 ± 0.052 µM | 25.3 Grams | 25.3 Grams | 25.2 Grams | 25.2 Grams | 25.2 Grams | 25.1 Grams | 25.1 Grams | 24.8 Grams | 24.7 Grams | 24.6 Grams | 24.5 Grams | 24.2 Grams
3 | N.N.[Cl][Pt][Cl] [Cisplatin, reference compound] | 13.34 ± 0.11 µM | – | – | – | – | – | – | – | – | – | – | – | – | –
4 | O=C(Cn1cnc2scc(-c3cccs3)c2c1=O)NN1C(=O)CSC1=Nc1ccccc1 [Compound 11, N-(4-oxo-2-(phenylimino)thiazolidin-3-yl)-2-(4-oxo-5-(thiophen-2-yl)thieno[2,3-d]-pyrimidin-3(4H)-yl)acetamide] | – | 2.48 ± 0.054 µM | 26.6 Grams | 26.6 Grams | 26.6 Grams | 26.5 Grams | 26.6 Grams | 26.6 Grams | 26.4 Grams | 26.3 Grams | 26.3 Grams | 26.3 Grams | 26.3 Grams | –
5 | O=c1oc(Cn2cnc3scc(-c4cccs4)c3c2=O)nc2ccccc12 [Compound 5, 2-((4-oxo-5-(thiophen-2-yl)thieno[2,3-d]pyrimidin-3(4H)-yl)methyl)-4H-benzo[d]-[1,3] oxazin-4-one] | – | 4.76 ± 0.087 µM | 22.9 Grams | 22.9 Grams | 22.9 Grams | 22.8 Grams | 22.8 Grams | 22.7 Grams | 22.8 Grams | 22.7 Grams | 22.9 Grams | 22.6 Grams | 22.6 Grams | 22.5 Grams
6 | Cc1cc(=O)n(C(=O)Cn2cnc3scc(-c4cccs4)c3c2=O)[nH]1 [Compound 12, 3-(2-(3-methyl-5-oxo-2,5-dihydro-1H-pyrazol-1-yl)-2-oxoethyl)-5-(thiophen-2-yl)thieno-[2,3-d]pyrimidin-4(3H)-one] | – | 3.36 ± 0.063 µM | 27.4 Grams | 27.4 Grams | 27.4 Grams | 27.3 Grams | 27.3 Grams | 27.3 Grams | 27.2 Grams | 27.2 Grams | 27.2 Grams | 27.1 Grams | 27.1 Grams | 27.1 Grams
7 | CCOC(=O)Cn1cnc2scc(-c3cccs3)c2c1=O [Compound 3, ethyl 2-(4-oxo-5-(thiophen-2-yl)thieno[2,3-d]pyrimidin-3(4H)-yl)acetate] | – | 5.98 ± 0.099 µM | 28 Grams | 28 Grams | 28 Grams | 28 Grams | 28.2 Grams | 27.9 Grams | 27.8 Grams | 27.7 Grams | 27.7 Grams | 27.6 Grams | 27.7 Grams | 27.7 Grams
8 | Nc1cc(O)cc(=O)n1NC(=O)Cn1cnc2scc(-c3cccs3)c2c1=O [Compound 14, N-(6-Amino-4-hydroxy-2-oxopyridin-1(2H)-yl)-2-(4-oxo-5-(thiophen-2-yl)thieno[2,3-d]-pyrimidin-3(4H)-yl)acetamide] | – | 1.19 ± 0.042 µM | 26.5 Grams | 26.4 Grams | 26.3 Grams | 26.2 Grams | 26.1 Grams | 25.9 Grams | 25.9 Grams | 25.9 Grams | 25.8 Grams | 25.8 Grams | 25.7 Grams | 25.7 Grams
9 | NC1=CC(N)N(NC(=O)Cn2cnc3scc(-c4cccs4)c3c2=O)C=C1 (stereo not shown) [Compound 15, N-(2,4-Diaminopyridin-1(2H)-yl)-2-(4-oxo-5-(thiophen-2-yl)thieno[2,3-d]-pyrimidin-3(4H)-yl)acetamide] | – | 1.18 ± 0.032 µM | 26.1 Grams | 26.1 Grams | 26.1 Grams | 25.8 Grams | 25.8 Grams | 25.7 Grams | 25.7 Grams | 25.6 Grams | 25.6 Grams | 25.5 Grams | 25.5 Grams | 25.2 Grams
10 | CC(=O)NNC(=O)Cn1cnc2scc(-c3cccs3)c2c1=O [Compound 13, N′-acetyl-2-(4-oxo-5-(thiophen-2-yl)thieno[2,3-d]pyrimidin-3(4H)-yl)aceto-hydrazide] | – | 3.64 ± 0.074 µM | 25.4 Grams | 25.4 Grams | 25.4 Grams | 25.4 Grams | 25.4 Grams | 25.3 Grams | 25.3 Grams | 25.3 Grams | 25.3 Grams | 25.3 Grams | 25.3 Grams | 25.3 Grams
11 | O=C(Cn1cnc2scc(-c3cccs3)c2c1=O)NNC(=S)Nc1ccccc1 [Compound 10, 2-(2-(4-oxo-5-(thiophen-2-yl)thieno[2,3-d]pyrimidin-3(4H)-yl)acetyl)-N-phenylhydrazine-1-carbothioamide] | – | 3.55 ± 0.065 µM | 24.9 Grams | 24.9 Grams | 24.9 Grams | 24.9 Grams | 24.8 Grams | 24.8 Grams | 24.8 Grams | 24.4 Grams | 24.4 Grams | 24.4 Grams | 24.4 Grams | 24.4 Grams
